A word on the IC50: it is the concentration needed to halve the response being measured.

Experimental findings from publication PMC3729231 (Bioorganic & medicinal chemistry letters, 2012) are described below.

The subject of series [1] is 29 other GPCRs. The experiment in a line: PDSP GPCR binding assay panel: other GPCRs. Particulars: listed as ML221.
In series [2] the target is T1, APJ (Homo sapiens, UniProt P35414).
T1 sequence (P35414 1-380): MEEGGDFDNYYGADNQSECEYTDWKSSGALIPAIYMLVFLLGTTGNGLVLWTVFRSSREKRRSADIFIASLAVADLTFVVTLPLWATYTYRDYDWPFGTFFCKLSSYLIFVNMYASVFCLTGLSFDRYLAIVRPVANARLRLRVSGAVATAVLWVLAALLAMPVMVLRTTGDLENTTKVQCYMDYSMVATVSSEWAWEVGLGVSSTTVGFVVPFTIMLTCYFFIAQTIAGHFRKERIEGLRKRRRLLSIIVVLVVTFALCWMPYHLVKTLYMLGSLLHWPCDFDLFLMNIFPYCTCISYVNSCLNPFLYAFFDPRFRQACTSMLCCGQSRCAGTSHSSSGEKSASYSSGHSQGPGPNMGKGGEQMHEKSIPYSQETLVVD
The experiment in a line: cell-based.

For series [3] the following is noted: aqueous acetonitrile; data not shown.

Molecules are shown by their SMILES.

As to `O=C(Oc1coc(CSc2ncccn2)cc1=O)c1ccc([N+](=O)[O-])cc1` [Entry 6, 4-oxo-6-((pyrimidin-2-ylthio)methyl)-4H-pyran-3-yl 4-nitrobenzoate], the “binding activity against other GPCRs (in words)” value in series [1] is recorded as “no significant binding activity”.
In turn, `Cc1ccnc(SCc2cc(=O)c(NC(=O)c3ccc([N+](=O)[O-])cc3)co2)n1` [Entry 67] came in with an IC50 in series [2] of 12.8 ± 0.35 µM.
For `Cc1ccnc(SCc2cc(=O)c(OC(=O)c3ccc(Cl)c([N+](=O)[O-])c3)co2)n1` [Entry 29], the “hydrolytic stability of the ester bond (in words)” value in series [3] is given as “readily hydrolyzed”.
